Test results taken from patent publication US20230012368A1 (Hoffmann-La Roche Inc., priority 2018, published 2023).
Counter-ions that a name gives are not always drawn.

system: Acinetobacter baumannii ATCC 17978; experiment: Antimicrobial susceptibility testing: 90% growth inhibitory concentration (IC90) determination; assay type: cell-based; settings: Acinetobacter baumannii, ATCC17978, 16 h, 90% growth inhibitory concentration; Acinetobacter baumannii ATCC17978; Iso-Sensitest broth, OD 600 nm over 16h; read-out: ATCC17978 IC90
In short: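 Growth of the Acinetobacter baumannii strain was followed by optical density at 600 nm every 20 minutes for 16h at 35±2° C. Inoculum was ~5×10^(5) CFU/ml in Iso-Sensitest medium, with twofold compound dilutions (e.g. 50 to 0.097 μM final). The 90% inhibitory concentration was derived in log-phase growth.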

SMILES | IC90 [nM]
CNC(=O)c1ccc(Nc2nccn3c(-c4ccc(OC(F)F)cc4)cnc23)cc1I [Example 91, 4-((3-(4-(difluoromethoxy)phenyl)imidazo[1,2-a]pyrazin-8-yl)amino)-2-iodo-N-methylbenzamide] | 260
N#CCOc1ccc(-c2cnc3c(Nc4ccc(C(=O)NCCCc5ccncc5)c(Cl)c4)nccn23)c(F)c1F [Example 76, 2-chloro-4-[[3-[4-(cyanomethoxy)-2,3-difluoro-phenyl]imidazo[l,2-a]pyrazin-8-yl]amino]-N-[3-(4-pyridyl)propyl] benzamide; 2,2,2-trifluoroacetic acid] | 170
CCc1cc(Nc2nccn3c(-c4ccc(OC)c(F)c4F)cnc23)ccc1C(=O)NCC1CCN(C(C)(C)C(=O)O)CC1 [Example 562, 2-(4-((4-((3-(2,3-difluoro-4-methoxyphenyl)imidazo[1,2-a]pyrazin-8-yl)amino)-2-ethylbenzamido)methyl)piper-idin-1-yl)-2-methylpropanoic acid compound with formic acid] | 320
CN(CCCSc1nc(=O)c(=O)[nH]n1C)C(=O)c1ccc(Nc2nccn3c(-c4ccc(OCC#N)c(F)c4F)cnc23)cc1Cl [Example 395, 2-chloro-4-((3-(4-(cyanomethoxy)-2,3-difluorophenyl)imidazo[1,2-a]pyrazin-8-yl)amino)-N-methyl-N-(3-((2-methyl-5,6-dioxo-1,2,5,6-tetrahydro-1,2,4-triazin-3-yl)thio)propyl)benzamide] | 740
CCc1cc(Nc2nccn3c(-c4ccc(OC)c(F)c4F)cnc23)ccc1C(=O)NCC(O)CNC(=O)[C@@H](N)CN (mixture of isomers) [Example 415, N-[3-[[(2S)-2,3-diaminopropanoyl]amino]-2-hydroxypropyl]-4-[[3-(2,3-difluoro-4-methoxyphenyl)imidazo[1,2-a]pyrazin-8-yl]amino]-2-ethylbenzamide;dihydrochlo-ride] | 520
CCc1cc(Nc2nccn3c(-c4ccc(OC(F)F)c(F)c4F)cnc23)ccc1C(=O)NC(C)CCN (centres unmarked) [Example 402, N-(4-aminobutan-2-yl)-4-((3-(4-(difluoromethoxy)-2,3-difluorophenyl)imidazo[1,2-a]pyrazin-8-yl)amino)-2-ethylbenzamide hydrochloride] | 570

The remaining lines, values ahead:

IC90 [nM] | SMILES
660 | CCc1cc(Nc2nccn3c(-c4ccc(Oc5ccccn5)c(F)c4F)cnc23)ccc1C(=O)N(C)C [Example 471, 4-[[3-[2,3-difluoro-4-(2-pyridyloxy)phenyl]imidazo [1,2-a]pyrazin-8-yl]amino]-2-ethyl-N,N-dimethyl-benzamide]
730 | COc1ccc(-c2cnc3c(Nc4ccc(C(=O)N(C)C)cc4)nccn23)cc1Cl [Example 180, 4-[[3-(3-chloro-4-methoxyphenyl)imidazo[1,2-a]pyrazin-8-yl]amino]-N,N-dimethylbenzamide;2,2,2-trifluoroacetic acid]
800 | CCc1cc(Nc2nccn3c(-c4ccc(OC)c(F)c4F)cnc23)ccc1C(=O)NCCCC[C@H](N)C(=O)O [Example 344, (2S)-2-amino-6-[[4-[[3-(2,3-difluoro-4-methoxyphenyl)imidazo[1,2-a]pyrazin-8-yl]amino]-2-ethylbenzoyl]amino]hexanoic acid;2,2,2-trifluoroacetic acid]
190 | COc1ccc(-c2cnc3c(Nc4ccc(C(=O)N(C)CCN5CCNCC5)c(C)c4)nccn23)c(F)c1F [Example 61, 4-((3-(2,3-difluoro-4-methoxyphenyl)imidazo [1,2-a]pyrazin-8-yl)amino)-N,2-dimethyl-N-(2-(piperazin-1-yl)ethyl)benzamide]
690 | Cc1cc(Nc2nccn3c(-c4ccc(OC(F)F)cc4)cnc23)ccc1C(=O)N(C)CCC1CCN(CCC#N)CC1 [Example 309, N-[2-[1-(2-cyanoethyl)piperidin-4-yl]ethyl]-4-[[3-[4-(difluoromethoxy)phenyl]im-idazo[1,2-a]pyrazin-8-yl]amino]-N,2-dimethylbenzamide]
